Laboratory results taken from ChEMBL document CHEMBL3045528, “Development of a Novel Fungicide, Cyazofamid” (J Pestic Sci, 2004).
≈ marks a conversion by molar mass, not a printed value.

Key:
[1] = Acute toxicity in po dosed Mus musculus (mouse); assay type: organism-based; details: in vivo
Apis mellifera [2] = experiment: Acute toxicity in Apis mellifera (honey bee) compound administered topically; assay type: organism-based; details: in vivo, topical_or_ocular
Phytophthora infestans [3] = experiment: Antimicrobial activity against Phytophthora infestans infested in potato plant; assay type: functional
Daphnia magna = experiment: Toxicity in Daphnia magna; assay type: organism-based
[4] = Toxicity in Cyprinidae (carp fish); assay type: ADME, organism-based; details: in vivo
[5] = Acute toxicity in Pheretima sieboldi; assay type: organism-based; details: metaphire sieboldi, in vivo
[6] = Solubility of the compound in water at pH 5 at 20 degC; assay type: physicochemical
[7] = Acute toxicity in Rattus norvegicus (rat) administered through inhalation; assay type: organism-based; details: in vivo, inhaled or intranasal
[8] = Acute toxicity in po dosed Rattus norvegicus (rat); assay type: organism-based; details: in vivo
Apis mellifera [9] = experiment: Acute toxicity in po dosed Apis mellifera (honey bee); assay type: organism-based; details: in vivo
[10] = tested on: Selenastrum capricornutum; experiment: Toxicity in Selenastrum capricornutum; assay type: organism-based
Plasmopara viticola = experiment: Antimicrobial activity against Plasmopara viticola infested in grapevines; assay type: functional
[11] = Acute toxicity in […] dosed Rattus norvegicus (rat); assay type: organism-based; details: in vivo
[12] = Toxicity in Oncorhynchus mykiss (rainbow trout); assay type: organism-based; details: in vivo
Phytophthora infestans [13] = experiment: Antimicrobial activity against Phytophthora infestans infested in tomato plant; assay type: functional
[14] = tested on: Pseudoperonospora cubensis; experiment: Antimicrobial activity against Pseudoperonospora cubensis infested in cucumber plant; assay type: functional
[15] = tested on: Pseudoperonospora cubensis; experiment: Antimicrobial activity against Pseudoperonospora cubensis infested in melons; assay type: functional

Cc1ccc(-c2c(Cl)nc(C#N)n2S(=O)(=O)N(C)C)cc1 [Cyazofamid]
LD50 [1]: > 5000 mg/kg
LD50 (Apis mellifera [2]): > 100 µg
Activity (Phytophthora infestans [3]): 50 µg/mL
EC50 (Daphnia magna): > 0.198 µg/mL
LC50 [4]: > 69.6 µg/mL
NOAEL [5]: > 1000 mg/kg
solubility [6]: 0.121 µg/mL (≈ 0.373 µM)
LC50 [7]: > 5.5 µg/mL
LD50 [8]: > 5000 mg/kg
LD50 (Apis mellifera [9]): > 151.7 µg
EC50 [10]: 0.858 µg/mL (≈ 2.64 µM)
Activity (Plasmopara viticola): 50 µg/mL
LD50 [11]: > 2000 mg/kg
LC50 [12]: > 100 µg/mL
Activity (Phytophthora infestans [13]): 50 µg/mL
Activity [14]: 50 µg/mL
Activity [15]: 50 µg/mL
